Tested on: patients presenting with acute pain from suspected renal colic
Assay: Clinical Study A: analgesic efficacy and safety of cizolirtine citrate versus sodium metamizol, single intravenous dose
Assay type: in vivo, human
Details: for proportion of patients showing complete pain relief / proportion of patients showing satisfactory pain relief (decrease of pain intensity ≧50%): VAS at t+30 min; for Pain in the VAS at t + 30 min (LSM [SEM]), primary efficacy endpoint: per protocol population, 100 mm VAS, 30 min after start of single iv infusion (350 mg cizolirtine citrate or 2,500 mg sodium metamizol), adjusted means; for number of adverse events: per treatment group (32 randomized each), vomits and one episode of fever, all mild or moderate, none serious
Method: Objectives: to compare the analgesic efficacy and safety of cizolirtine citrate, an inhibitor of the release of the substance P, versus sodium metamizol to treat acute pain. Method: sixty four patients presenting with acute pain from suspected renal colic were randomized to a single intravenous dose of either 350 mg of cizolirtine citrate or 2,500 mg of sodium metamizol. Pain was assessed throughout 6 hours by means of visual analogical (VAS) and categorical scales. Results: renal colic was confirmed in all patients randomized. After 30 minutes, pain adjusted mean scores (100 mm VAS) were (LSM±SEM) 39.203±4.4 mm and 30.155±4.2 mm. In the cizolirtine and metamizol groups, respectively (p=0.1203). […] However, efficacy was lower than that of the comparator, an established treatment.
Study population: Subjects of either sex aged between 18 and 65 years old suffering moderate to severe pain due to a suspected renal colic starting within previous 24 hour and having a urine dipstick test positive for haematuria. Since this was an exploratory pilot phase II study, a formal sample size calculation was not performed. Moreover, no previous information regarding a comparison between the effects of sodium metamizol and placebo as analgesics for the management of renal colic could be found. Therefore, a minimum effect size to establish a non-inferiority margin was not be established. Nevertheless, to detect a difference of at least 25 mm in pain intensity measured with the VAS assuming a common standard deviation of 36.1 by means of a one-sided t test, 26 patients per group were necessary. Considering a dropout rate of 20%, 64 patients were recruited in the study
Study treatments: Either one single 350 mg dose of cizolirtine citrate or one single 2,500 mg dose of sodium metamizol by slow intravenous infusion in 15 minutes in a double-blind and randomized fashion and in a 1:1 proportion. Rescue doses of butorphanol were given as needed but were not allowed during the first 30 minutes.
Measurements: Patients ranked their pain intensity on both a visual analogical scale (VAS) and a verbal categorical scale at baseline and 15, 30 and 45 minutes and 1, 2, 3, 4, […] after receiving the study drug. Vital signs were determined also at 15, 30 and 45 minutes and at 1 and 6 hours. Active questioning for adverse events since receiving study medication was done after 2 hours. Confirmatory diagnosis of an ureteral stone had to be established before the end of the study.
Primary endpoint: mean pain intensity as determined by the VAS 30 minutes after the start of study drug administration (t+30 min).
Statistics: Demographic and baseline continuous variables values were compared between treatment groups by means of a t test. Primary efficacy analyses were performed in the per protocol population. An analysis of covariance model with the factors treatment, centre and the treatment by centre interaction and considering the baseline value as a covariate was used or the comparison between the groups. In addition, the bilateral 95% confidence interval was calculated for the difference between treatments.
The proportions of patients with complete and satisfactory pain relief between treatments at t+30 min were compared between treatment groups by means of a chi-square test and also the bilateral 95% confidence intervals for the differences were calculated. The time-treatment variables were evaluated by means of the Kaplan-Meier method and the log-rank test was used to compare the treatment groups, pain intensity differences as determined by means of the visual analogical scale (APID), pain intensity differences as determined by means of the categorical scale (CPID) and relief of pain as determined by means of the categorical scale on pain relief (PAR) from baseline to t+30 min were compared between treatment groups by means of a repeated measures analysis of variance. […]

[1] = 30 min after start of single iv dose, versus baseline

| Structure (SMILES) | mean decrease in pain intensity (VAS) at t+30 min [1] [%] | proportion of patients showing complete pain relief [%] | proportion of patients showing satisfactory pain relief (decrease of pain intensity ≧50%) [%] | onset of analgesia relative to comparator (time-curves APID, CPID, PAR) (difference disappears after 2 hours) | Pain in the VAS at t + 30 min (LSM [SEM]), primary efficacy endpoint [mm] | number of adverse events | mean reductions in pain intensity determined by the VAS at t+30 min [1] [mm] | Pain in the VAS at t + 30 min (LSM [SEM]), primary efficacy endpoint (listed as metamizol) [mm] |
| --- | --- | --- | --- | --- | --- | --- | --- | --- |
| CN(C)CCO[C@H](c1ccccc1)c1ccnn1C.O=C(O)CC(O)(CC(=O)O)C(=O)O (racemic) [Cizolirtine, (±)-5-{α-[2-(dimethylamino)ethoxy]benzyl}-1-methyl-1H-pirazole citrate] | 57.2 | 48.4 | 64.5 | deferred with respect to that provided by metamizol | 39.203±4.4 | 3 |  |  |
| Cc1c(N(C)CS(=O)(=O)[O-])c(=O)n(-c2ccccc2)n1C.[Na+] [Metamizol, sodium metamizol] | 69.1 | 56.3 | 75.0 |  | 30.155 | 3 | 57.1 | 30.155±4.2 |

— patent publication US20060040924A1, “Derivatives of aryl (or heteroaryl) azolylcarbinols for the treatment of renal colic” (Laboratorios Dr. Esteve S.A., priority 2004, published 2006)
